Reference: patent US20080170993A1, “THYMIDINE ANALOGS FOR IMAGING” (priority 2006, published 2008)

target: T1, recombinant thymidine kinase 1 (TK-1) (Homo sapiens, UniProt P04183); conditions: cold 19F analogues; 100 μM ATP+P-32-ATP, 10-60 ng thymidine kinase; TLC, phosphoimager; thymidine 100%
T1 sequence (P04183 1-234): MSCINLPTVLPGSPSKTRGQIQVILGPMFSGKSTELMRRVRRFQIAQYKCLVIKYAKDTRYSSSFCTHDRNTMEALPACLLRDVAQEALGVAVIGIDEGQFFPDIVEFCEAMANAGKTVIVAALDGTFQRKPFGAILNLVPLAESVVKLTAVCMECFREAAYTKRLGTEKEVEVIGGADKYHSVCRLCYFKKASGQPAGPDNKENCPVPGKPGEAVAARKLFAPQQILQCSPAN

SMILES | In vitro-Phosphorylation
Cc1cn([C@H]2C[C@H](O)[C@@H](CO)O2)c(=O)n(CCCNC(=O)c2ccc(F)c(C(F)(F)F)c2)c1=O | 12% ± 1.1%
Cc1cn([C@H]2C[C@H](O)[C@@H](CO)O2)c(=O)n(CCCCN(C)C(=O)c2ccc(F)c(C#N)c2)c1=O | 12% ± 2.8%
Cc1cn([C@H]2C[C@H](O)[C@@H](CO)O2)c(=O)n(CCNC(=O)CNC(=O)C(CF)NS(=O)(=O)c2c(C(C)C)cc(C(C)C)cc2C(C)C)c1=O (some centres unmarked) | 19% ± 3.7%
Cc1cn([C@H]2C[C@H](O)[C@@H](CO)O2)c(=O)n(CCCCCCNC(=O)CNC(=O)C(CF)NS(=O)(=O)c2c(C(C)C)cc(C(C)C)cc2C(C)C)c1=O (some centres unmarked) | 17% ± 10.2%
Cc1cn([C@H]2C[C@H](O)[C@@H](CO)O2)c(=O)n(CCCNC(=O)Cc2ccc([Si](F)(C(C)C)C(C)C)cc2)c1=O | 17% ± 1.5%
N#Cc1cc(C(=O)NCCCCCCn2c(=O)c(C(F)(F)F)cn([C@H]3C[C@H](O)[C@@H](CO)O3)c2=O)ccc1F | 49% ± 9.9%
Cc1cn([C@H]2C[C@H](O)[C@@H](CO)O2)c(=O)n(CCCCCCCNC(=O)c2ccc(F)c(C#N)c2)c1=O | 36% ± 6.5%
Cc1cn([C@H]2C[C@H](O)[C@@H](CO)O2)c(=O)n(CCCNC(=O)CCc2cccc([Si](F)(C(C)C)C(C)C)c2)c1=O | 15% ± 6.1%
Cc1cn([C@H]2C[C@H](O)[C@@H](CO)O2)c(=O)n(CC#CCF)c1=O | 23% ± 8.0%
Cc1cn([C@H]2C[C@H](O)[C@@H](CO)O2)c(=O)n(Cc2ccc(F)cc2)c1=O | 34% ± 18.6%
Cc1cn([C@H]2C[C@H](O)[C@@H](CO)S2)c(=O)n(CCCCCCF)c1=O | 26% ± 4.0%
Cc1cn([C@H]2C[C@H](O)[C@@H](CO)S2)c(=O)[nH]c1=O | 70% ± 9.3%
Cc1cn([C@H]2C[C@H](F)[C@@H](CO)O2)c(=O)[nH]c1=O [FLT, 3′-[F-18]fluoro-3′-deoxythymidine, reference compound] | 58% ± 11.9%
Cc1cn([C@H]2C[C@H](O)[C@@H](CO)O2)c(=O)n(CCCCF)c1=O [TD-1] | 13% ± 5.4%
Cc1cn([C@H]2C[C@H](O)[C@@H](CO)O2)c(=O)n(CCCCCCF)c1=O [TD-2] | 30% ± 3.7%
Cc1cn([C@H]2C[C@H](O)[C@@H](CO)O2)c(=O)n(CCCCCCNC(=O)c2ccc(F)c(C#N)c2)c1=O [TD-8] | 41% ± 9.5%
Cc1cn([C@H]2C[C@H](O)[C@@H](CO)O2)c(=O)n(CCCCNC(=O)c2ccc(F)c(C#N)c2)c1=O [TD-9] | 21% ± 4.6%
